Test results published in PubChem BioAssay AID504400 (The Scripps Research Institute Molecular Screening Center, 2011).
Active and inactive are the calls of the source. The rule behind the calls is not given here.

Columns and labels:
Assay in all cases: CYP450 and receptor off-target profile – biochemical, Ricerca HitProfilingScreen, selectivity assay for S1P4 agonist project, late-stage follow-up (AID 504400)
[1] = biological target: Muscarinic acetylcholine receptor M2 (Homo sapiens) (UniProt P08172); settings: Ricerca radioligand binding/enzyme panel plus CYP450, at 10 µM, active compounds read high
Chain of Muscarinic acetylcholine receptor M2 (Homo sapiens) (P08172 whole entry, looked up): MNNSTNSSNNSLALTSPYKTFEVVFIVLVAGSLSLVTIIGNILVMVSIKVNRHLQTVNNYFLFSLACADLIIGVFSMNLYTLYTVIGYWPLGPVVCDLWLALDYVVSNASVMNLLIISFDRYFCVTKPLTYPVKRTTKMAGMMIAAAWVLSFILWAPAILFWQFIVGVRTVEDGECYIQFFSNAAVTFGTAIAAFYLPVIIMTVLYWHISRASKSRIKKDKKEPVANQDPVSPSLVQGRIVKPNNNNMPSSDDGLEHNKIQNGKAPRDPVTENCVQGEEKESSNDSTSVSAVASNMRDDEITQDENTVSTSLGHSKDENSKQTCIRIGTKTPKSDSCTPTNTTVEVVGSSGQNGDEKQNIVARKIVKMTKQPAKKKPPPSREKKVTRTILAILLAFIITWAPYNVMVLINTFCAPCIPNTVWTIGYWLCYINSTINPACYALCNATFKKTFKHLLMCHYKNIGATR

[2] = biological target: Beta-2 adrenergic receptor (Homo sapiens) (UniProt P07550); settings: Ricerca radioligand binding/enzyme panel plus CYP450; Adrenergic beta2; at 10 µM; active compounds read high
Chain of Beta-2 adrenergic receptor (Homo sapiens) (P07550 whole entry, looked up): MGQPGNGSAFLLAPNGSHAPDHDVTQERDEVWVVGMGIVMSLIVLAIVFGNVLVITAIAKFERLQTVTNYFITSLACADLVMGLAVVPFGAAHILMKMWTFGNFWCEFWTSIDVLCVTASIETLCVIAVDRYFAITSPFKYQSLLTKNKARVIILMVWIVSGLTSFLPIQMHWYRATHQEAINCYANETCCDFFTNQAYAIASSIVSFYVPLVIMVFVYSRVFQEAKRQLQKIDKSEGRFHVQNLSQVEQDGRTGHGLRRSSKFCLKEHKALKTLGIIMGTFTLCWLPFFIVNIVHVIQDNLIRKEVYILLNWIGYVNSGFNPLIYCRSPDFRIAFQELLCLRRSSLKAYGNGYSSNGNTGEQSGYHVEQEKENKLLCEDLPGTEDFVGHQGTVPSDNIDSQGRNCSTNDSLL

[3] = system: Sigma 1; settings: Ricerca radioligand binding/enzyme panel plus CYP450, at 10 µM, active compounds read high
[4] = biological target: Cytochrome P450 2C9 (Homo sapiens) (UniProt P11712); settings: Ricerca radioligand binding/enzyme panel plus CYP450; CYP450, 2C9; at 10 µM; active compounds read high
Chain of Cytochrome P450 2C9 (Homo sapiens) (P11712 whole entry, looked up): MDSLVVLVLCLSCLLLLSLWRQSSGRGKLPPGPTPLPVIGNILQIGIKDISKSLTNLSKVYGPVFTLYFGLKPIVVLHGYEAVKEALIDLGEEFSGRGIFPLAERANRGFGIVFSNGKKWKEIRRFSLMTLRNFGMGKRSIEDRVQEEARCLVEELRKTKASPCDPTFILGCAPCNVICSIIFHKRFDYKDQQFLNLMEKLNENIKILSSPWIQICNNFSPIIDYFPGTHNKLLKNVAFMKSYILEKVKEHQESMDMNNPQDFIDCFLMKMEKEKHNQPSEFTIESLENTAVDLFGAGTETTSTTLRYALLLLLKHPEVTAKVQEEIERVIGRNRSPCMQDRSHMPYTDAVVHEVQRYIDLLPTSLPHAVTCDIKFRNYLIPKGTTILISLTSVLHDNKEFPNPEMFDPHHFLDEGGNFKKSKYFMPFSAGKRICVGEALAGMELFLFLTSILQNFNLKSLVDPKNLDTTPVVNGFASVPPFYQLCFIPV

[5] = system: Dopamine D2S; settings: Ricerca radioligand binding/enzyme panel plus CYP450, at 10 µM, active compounds read high
[6] = biological target: D(1A) dopamine receptor (Homo sapiens) (UniProt P21728); settings: Ricerca radioligand binding/enzyme panel plus CYP450; Dopamine D1; at 10 µM; active compounds read high
[7] = biological target: Voltage-gated inwardly rectifying potassium channel KCNH2 (Homo sapiens) (UniProt Q12809); settings: Ricerca radioligand binding/enzyme panel plus CYP450; Potassium Channel hERG; at 10 µM; active compounds read high
Chain of Voltage-gated inwardly rectifying potassium channel KCNH2 (Homo sapiens) (Q12809 whole entry, looked up): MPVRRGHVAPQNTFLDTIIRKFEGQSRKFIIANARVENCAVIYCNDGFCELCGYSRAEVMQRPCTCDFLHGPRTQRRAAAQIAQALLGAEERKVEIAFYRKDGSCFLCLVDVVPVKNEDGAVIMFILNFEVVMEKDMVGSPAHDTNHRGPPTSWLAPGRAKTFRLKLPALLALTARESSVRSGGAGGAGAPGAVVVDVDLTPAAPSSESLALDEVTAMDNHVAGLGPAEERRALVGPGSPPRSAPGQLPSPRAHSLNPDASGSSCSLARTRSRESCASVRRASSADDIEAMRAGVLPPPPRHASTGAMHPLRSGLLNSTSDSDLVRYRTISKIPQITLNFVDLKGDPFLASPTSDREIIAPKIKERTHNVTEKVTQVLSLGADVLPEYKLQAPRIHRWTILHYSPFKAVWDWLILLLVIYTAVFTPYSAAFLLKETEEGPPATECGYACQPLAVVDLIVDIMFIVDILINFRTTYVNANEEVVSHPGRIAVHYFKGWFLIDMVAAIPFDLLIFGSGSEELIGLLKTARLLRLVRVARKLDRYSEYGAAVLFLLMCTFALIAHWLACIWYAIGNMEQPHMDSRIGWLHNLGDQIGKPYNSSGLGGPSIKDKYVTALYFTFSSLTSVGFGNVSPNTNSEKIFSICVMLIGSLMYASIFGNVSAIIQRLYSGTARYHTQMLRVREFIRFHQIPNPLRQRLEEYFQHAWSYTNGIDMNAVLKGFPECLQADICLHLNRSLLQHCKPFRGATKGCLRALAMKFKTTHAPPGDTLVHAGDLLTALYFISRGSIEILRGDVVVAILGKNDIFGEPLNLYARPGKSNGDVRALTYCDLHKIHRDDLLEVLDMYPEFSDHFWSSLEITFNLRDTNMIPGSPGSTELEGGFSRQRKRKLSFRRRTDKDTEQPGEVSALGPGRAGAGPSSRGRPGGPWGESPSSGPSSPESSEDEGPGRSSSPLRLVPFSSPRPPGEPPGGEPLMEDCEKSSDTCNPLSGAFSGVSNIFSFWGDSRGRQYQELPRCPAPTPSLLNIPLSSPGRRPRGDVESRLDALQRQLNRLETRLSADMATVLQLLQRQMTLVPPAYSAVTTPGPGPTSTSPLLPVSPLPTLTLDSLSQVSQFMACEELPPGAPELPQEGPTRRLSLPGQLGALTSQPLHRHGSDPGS

[8] = system: Prostanoid EP4; settings: Ricerca radioligand binding/enzyme panel plus CYP450, at 10 µM, active compounds read high
[9] = system: Adenosine A1; settings: Ricerca radioligand binding/enzyme panel plus CYP450, at 10 µM, active compounds read high
[10] = system: Sodium Channel, Site 2; settings: Ricerca radioligand binding/enzyme panel plus CYP450, at 10 µM, active compounds read high
[11] = system: Adrenergic alpha1A; settings: Ricerca radioligand binding/enzyme panel plus CYP450, at 10 µM, active compounds read high
[12] = biological target: 5-hydroxytryptamine receptor 2B (Homo sapiens) (UniProt P41595); settings: Ricerca radioligand binding/enzyme panel plus CYP450; Serotonin (5-Hydroxytryptamine) 5-HT2B; at 10 µM; active compounds read high
[13] = system: Glutamate NMDA; settings: Ricerca radioligand binding/enzyme panel plus CYP450, Phencyclidine, at 10 µM, active compounds read high
[14] = biological target: Cytochrome P450 3A4 (Homo sapiens) (UniProt P08684); settings: Ricerca radioligand binding/enzyme panel plus CYP450; CYP450, 3A4; at 10 µM; active compounds read high
[15] = system: Alpha-2A adrenergic receptor (Homo sapiens) + Histamine H1 receptor (Homo sapiens) + Mu-type opioid receptor (Homo sapiens); settings: Ricerca radioligand binding/enzyme panel plus CYP450; at 10 µM; active compounds read high
[16] = biological target: Muscarinic acetylcholine receptor M3 (Homo sapiens) (UniProt P20309); settings: Ricerca radioligand binding/enzyme panel plus CYP450, at 10 µM, active compounds read high
Chain of Muscarinic acetylcholine receptor M3 (Homo sapiens) (P20309 whole entry, looked up): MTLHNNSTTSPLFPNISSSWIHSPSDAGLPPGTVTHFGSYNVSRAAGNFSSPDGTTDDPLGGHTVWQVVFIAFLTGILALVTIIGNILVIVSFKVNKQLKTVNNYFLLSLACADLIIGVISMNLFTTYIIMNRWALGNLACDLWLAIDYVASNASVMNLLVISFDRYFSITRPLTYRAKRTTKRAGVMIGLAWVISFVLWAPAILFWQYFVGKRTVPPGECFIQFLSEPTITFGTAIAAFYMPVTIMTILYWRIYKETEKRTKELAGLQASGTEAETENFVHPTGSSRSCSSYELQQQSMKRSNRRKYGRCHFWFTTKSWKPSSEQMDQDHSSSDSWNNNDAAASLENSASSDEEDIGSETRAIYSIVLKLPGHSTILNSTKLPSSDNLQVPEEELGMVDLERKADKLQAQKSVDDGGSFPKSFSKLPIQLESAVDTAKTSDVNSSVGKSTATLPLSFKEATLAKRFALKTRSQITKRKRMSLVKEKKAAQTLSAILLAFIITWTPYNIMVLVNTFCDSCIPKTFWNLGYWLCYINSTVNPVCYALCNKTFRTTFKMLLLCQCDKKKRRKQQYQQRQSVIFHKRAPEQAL

[17] = system: CYP450, 2C19; settings: Ricerca radioligand binding/enzyme panel plus CYP450, at 10 µM, active compounds read high
[18] = biological target: Cytochrome P450 1A2 (Homo sapiens) (UniProt P05177); settings: Ricerca radioligand binding/enzyme panel plus CYP450; CYP450, 1A2; at 10 µM; active compounds read high
Chain of Cytochrome P450 1A2 (Homo sapiens) (P05177 whole entry, looked up): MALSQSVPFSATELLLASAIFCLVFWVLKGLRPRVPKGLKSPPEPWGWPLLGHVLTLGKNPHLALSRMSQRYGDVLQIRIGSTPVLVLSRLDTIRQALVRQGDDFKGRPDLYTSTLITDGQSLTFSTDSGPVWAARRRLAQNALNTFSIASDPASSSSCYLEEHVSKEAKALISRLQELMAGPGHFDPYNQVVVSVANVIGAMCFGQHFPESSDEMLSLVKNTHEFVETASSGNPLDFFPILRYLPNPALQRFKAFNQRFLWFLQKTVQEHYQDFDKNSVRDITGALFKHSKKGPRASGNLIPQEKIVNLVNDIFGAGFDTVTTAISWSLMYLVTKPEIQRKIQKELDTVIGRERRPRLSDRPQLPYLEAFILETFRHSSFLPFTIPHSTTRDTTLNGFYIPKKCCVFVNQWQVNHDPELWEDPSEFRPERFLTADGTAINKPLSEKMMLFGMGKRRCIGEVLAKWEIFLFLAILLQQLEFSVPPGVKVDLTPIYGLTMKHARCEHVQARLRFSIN

[19] = system: Cannabinoid CB1; settings: Ricerca radioligand binding/enzyme panel plus CYP450, at 10 µM, active compounds read high
[20] = system: Nicotinic Acetylcholine; settings: Ricerca radioligand binding/enzyme panel plus CYP450, at 10 µM, active compounds read high
[21] = system: Adrenergic alpha1B; settings: Ricerca radioligand binding/enzyme panel plus CYP450, at 10 µM, active compounds read high
[22] = system: Transporter, Norepinephrine (NET); settings: Ricerca radioligand binding/enzyme panel plus CYP450, at 10 µM, active compounds read high
[23] = biological target: Alpha-2A adrenergic receptor (Homo sapiens) (UniProt P08913); settings: Ricerca radioligand binding/enzyme panel plus CYP450; Adrenergic alpha2A; at 10 µM; active compounds read high
Chain of Alpha-2A adrenergic receptor (Homo sapiens) (P08913 whole entry, looked up): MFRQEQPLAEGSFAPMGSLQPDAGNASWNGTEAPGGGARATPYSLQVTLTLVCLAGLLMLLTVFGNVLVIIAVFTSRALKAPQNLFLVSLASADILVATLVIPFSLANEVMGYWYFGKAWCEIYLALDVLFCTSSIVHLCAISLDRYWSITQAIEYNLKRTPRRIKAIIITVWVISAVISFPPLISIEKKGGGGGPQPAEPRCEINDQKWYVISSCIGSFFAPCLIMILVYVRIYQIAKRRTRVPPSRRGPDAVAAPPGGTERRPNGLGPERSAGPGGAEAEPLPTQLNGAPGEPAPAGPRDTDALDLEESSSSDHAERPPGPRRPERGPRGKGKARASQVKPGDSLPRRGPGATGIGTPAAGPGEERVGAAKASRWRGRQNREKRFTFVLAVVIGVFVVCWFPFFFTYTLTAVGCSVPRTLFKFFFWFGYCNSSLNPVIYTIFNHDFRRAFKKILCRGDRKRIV

[24] = system: Adrenergic beta1; settings: Ricerca radioligand binding/enzyme panel plus CYP450, at 10 µM, active compounds read high
[25] = system: Histamine H1; settings: Ricerca radioligand binding/enzyme panel plus CYP450, at 10 µM, active compounds read high
[26] = system: Calcium Channel L-Type; settings: Ricerca radioligand binding/enzyme panel plus CYP450, Dihydropyridine, at 10 µM, active compounds read high
[27] = system: Adenosine A2A; settings: Ricerca radioligand binding/enzyme panel plus CYP450, at 10 µM, active compounds read high
[28] = system: Opiate mu (OP3, MOP); settings: Ricerca radioligand binding/enzyme panel plus CYP450, at 10 µM, active compounds read high
[29] = biological target: Cytochrome P450 2D6 (Homo sapiens) (UniProt P10635); settings: Ricerca radioligand binding/enzyme panel plus CYP450; CYP450, 2D6; at 10 µM; active compounds read high
Chain of Cytochrome P450 2D6 (Homo sapiens) (P10635 whole entry, looked up): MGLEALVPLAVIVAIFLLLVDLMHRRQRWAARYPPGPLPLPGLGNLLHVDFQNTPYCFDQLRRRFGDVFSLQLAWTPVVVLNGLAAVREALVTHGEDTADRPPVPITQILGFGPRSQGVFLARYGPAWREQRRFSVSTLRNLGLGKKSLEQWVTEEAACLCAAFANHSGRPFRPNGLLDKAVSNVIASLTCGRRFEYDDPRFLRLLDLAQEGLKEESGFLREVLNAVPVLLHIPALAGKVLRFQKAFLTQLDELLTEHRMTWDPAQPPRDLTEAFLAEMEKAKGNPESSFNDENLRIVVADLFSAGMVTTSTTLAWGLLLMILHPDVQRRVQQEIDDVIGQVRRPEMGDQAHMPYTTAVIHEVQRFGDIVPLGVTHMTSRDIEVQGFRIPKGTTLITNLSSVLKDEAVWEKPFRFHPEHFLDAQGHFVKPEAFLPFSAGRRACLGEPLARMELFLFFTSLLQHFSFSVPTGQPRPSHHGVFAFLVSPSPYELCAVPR

[30] = system: GABAA; settings: Central, at 10 µM, active compounds read high

Measured: inhibition

Clc1ccc(OCCOc2ccc(Br)nc2Br)c(Cl)c1
active: [17] 97% | [18] 58% | [22] 68% | [26] 51%
inactive: [1] 2% | [2] 7% | [3] 22% | [4] 3% | [5] 25% | [6] 18% | [7] -1% | [8] -7% | [9] 7% | [10] 32% | [11] 28% | [12] 27% | [13] -5% | [14] -5% | [15] 0% | [16] -3% | [19] 31% | [20] -4% | [21] 26% | [23] 9% | [24] 12% | [25] 15% | [27] 10% | [28] 9% | [29] 2% | [30]; Ricerca radioligand binding/enzyme panel plus CYP450, Flunitrazepam 2% | [30]; Ricerca radioligand binding/enzyme panel plus CYP450, Muscimol 1%
